ChEMBL document CHEMBL1142443, “Design and synthesis of reboxetine analogs morpholine derivatives as selective norepinephrine reuptake inhibitors” (Bioorg Med Chem Lett, 2008)

Experiments:
[1] = target: Sodium-dependent noradrenaline transporter (Homo sapiens) (UniProt P23975); assay: Binding affinity at NET
[2] = target: Sodium-dependent serotonin transporter (Homo sapiens) (UniProt P31645); assay: Binding affinity at SERT
Sodium-dependent serotonin transporter (Homo sapiens), sequence (P31645 whole entry, looked up): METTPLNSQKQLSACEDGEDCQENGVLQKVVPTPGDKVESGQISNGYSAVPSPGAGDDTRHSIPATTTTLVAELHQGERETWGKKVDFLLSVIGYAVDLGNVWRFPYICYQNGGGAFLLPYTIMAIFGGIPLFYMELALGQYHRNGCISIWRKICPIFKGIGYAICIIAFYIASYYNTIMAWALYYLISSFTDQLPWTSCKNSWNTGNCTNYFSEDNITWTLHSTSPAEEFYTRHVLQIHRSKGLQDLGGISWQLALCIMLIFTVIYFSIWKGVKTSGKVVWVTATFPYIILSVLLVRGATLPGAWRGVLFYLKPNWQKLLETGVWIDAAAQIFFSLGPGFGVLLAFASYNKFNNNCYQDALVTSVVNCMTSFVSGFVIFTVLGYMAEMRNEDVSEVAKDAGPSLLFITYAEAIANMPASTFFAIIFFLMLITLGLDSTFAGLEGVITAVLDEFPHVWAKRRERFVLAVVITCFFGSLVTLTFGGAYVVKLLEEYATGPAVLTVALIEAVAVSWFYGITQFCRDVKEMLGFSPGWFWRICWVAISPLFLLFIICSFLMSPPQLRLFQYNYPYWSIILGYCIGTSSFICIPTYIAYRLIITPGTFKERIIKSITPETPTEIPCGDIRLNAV

Sodium-dependent noradrenaline transporter (Homo sapiens), sequence (P23975 whole entry): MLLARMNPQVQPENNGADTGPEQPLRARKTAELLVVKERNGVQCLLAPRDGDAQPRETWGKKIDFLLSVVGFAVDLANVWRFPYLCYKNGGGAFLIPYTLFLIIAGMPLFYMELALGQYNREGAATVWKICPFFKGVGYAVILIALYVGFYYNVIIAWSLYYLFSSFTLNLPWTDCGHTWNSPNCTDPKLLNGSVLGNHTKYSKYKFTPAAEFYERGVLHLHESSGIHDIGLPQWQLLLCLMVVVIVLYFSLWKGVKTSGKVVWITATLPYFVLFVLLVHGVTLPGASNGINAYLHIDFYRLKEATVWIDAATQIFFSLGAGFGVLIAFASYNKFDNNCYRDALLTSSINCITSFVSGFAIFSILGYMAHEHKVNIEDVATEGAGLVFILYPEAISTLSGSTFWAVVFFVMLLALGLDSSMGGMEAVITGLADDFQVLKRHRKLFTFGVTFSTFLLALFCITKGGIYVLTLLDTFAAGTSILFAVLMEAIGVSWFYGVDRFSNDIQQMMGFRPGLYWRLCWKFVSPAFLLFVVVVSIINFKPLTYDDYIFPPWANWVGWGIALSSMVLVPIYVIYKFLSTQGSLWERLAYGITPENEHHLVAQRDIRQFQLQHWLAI

Row | Compound | Activity [1] | Activity [2]
1 | CCOc1ccccc1O[C@@H](c1ccc(CC)cn1)[C@@H]1CNCCO1 | 49 nM | 8210 nM
2 | CCOc1ccccc1O[C@@H](c1cccnc1)[C@@H]1CNCCO1 | 114 nM | > 10000 nM
3 | N#Cc1ccccc1O[C@@H](c1ccccc1)[C@@H]1CNCCO1 | 18 nM | > 10000 nM
4 | Fc1ccc(O[C@@H](c2ccccc2)[C@@H]2CNCCO2)cc1 | 21 nM | 1620 nM
5 | CS(=O)(=O)c1ccccc1O[C@@H](c1ccccc1)[C@@H]1CNCCO1 | 1360 nM | > 10000 nM
6 | CCOc1ccccc1O[C@@H](c1ccccn1)[C@@H]1CNCCO1 | 7 nM | 6910 nM
7 | CCOc1ccccc1O[C@@H](c1ncccc1C)[C@@H]1CNCCO1 | 27 nM | 3680 nM
8 | c1ccc([C@H](Oc2ccccc2C2CC2)[C@H]2CNCCO2)cc1 | 35 nM | 75 nM
9 | CCOc1ccccc1O[C@@H](c1cccc(OC)n1)[C@@H]1CNCCO1 | 28 nM | 676 nM
10 | Brc1ccccc1O[C@@H](c1ccccc1)[C@@H]1CNCCO1 | 3 nM | 477 nM
11 | c1ccc([C@H](Oc2ccccc2C2CC2)[C@@H]2CNCCO2)cc1 | 2 nM | 482 nM
12 | Cc1ccc(C(C)C)c(O[C@@H](c2ccccn2)[C@@H]2CNCCO2)c1 | 457 nM | > 8400 nM
13 | Brc1ccccc1O[C@@H](c1ccccc1)[C@H]1CNCCO1 | 17 nM | 105 nM

Further lines, results first:

Row | Activity [1] | Activity [2] | Compound
14 | 4 nM | 2570 nM | CCOc1cccc(F)c1O[C@@H](c1ccccc1)[C@@H]1CNCCO1
15 | 13 nM | 445 nM | Fc1cccc(F)c1O[C@@H](c1cccc2c1OCC2)[C@@H]1CNCCO1
16 | 19 nM | > 10000 nM | Cc1coc([C@H](Oc2c(F)cccc2F)[C@@H]2CNCCO2)n1 (stereo in doubt; form 2)
17 | 6 nM | 8980 nM | Fc1cccc(F)c1O[C@@H](c1ccccn1)[C@@H]1CNCCO1
18 | 7 nM | 6390 nM | Fc1ccccc1O[C@@H](c1ccccc1)[C@@H]1CNCCO1
19 | 9 nM | > 10000 nM | Fc1cccc(F)c1O[C@@H](c1ncco1)[C@@H]1CNCCO1
20 | 2570 nM | 2530 nM | Fc1cccc(F)c1O[C@H](C1=CCCC1)[C@@H]1CNCCO1
21 | 7 nM | 1210 nM | Fc1cccc(F)c1O[C@@H](c1ccccc1)[C@@H]1CNCCO1
22 | 16 nM | 617 nM | Fc1ccc(O[C@@H](c2ccccc2)[C@@H]2CNCCO2)c(F)c1
23 | 2 nM | > 3500 nM | COc1cccc(F)c1O[C@@H](c1ccccc1)[C@@H]1CNCCO1
24 | 19 nM | > 10000 nM | Fc1cccc(F)c1O[C@@H](c1nccs1)[C@@H]1CNCCO1
25 | 6940 nM | > 10000 nM | Cc1coc([C@@H](Oc2c(F)cccc2F)[C@@H]2CNCCO2)n1
26 | 66 nM | 912 nM | Fc1cccc(F)c1O[C@@H](Cc1ccccc1)[C@@H]1CNCCO1
27 | 18 nM | > 4500 nM | Cc1coc([C@H](Oc2c(F)cccc2F)[C@@H]2CNCCO2)n1 (stereo in doubt; form 1)
28 | 11 nM | 13 nM | Fc1cccc(OC(c2ccccc2)C2CNCCO2)c1 (stereo not drawn)
29 | 20 nM | 3700 nM | Fc1cccc(F)c1O[C@@H](C1=CCCC1)[C@@H]1CNCCO1
